Laboratory results published in the SangsterLogP compilation.

Assay: method code SF-AS, from PMID: 8295915

In order of rising logP:
1. Cc1nc(N)sc1C(=O)CCN1CCOCC1  0.82
2. CNc1nc(C)c(C(=O)CCN2CCOCC2)s1  0.95
3. CCNc1nc(C)c(C(=O)CCN2CCOCC2)s1  1.43
4. Cc1nc(N)sc1C(=O)CCN(C)C  1.47
5. CNc1nc(C)c(C(=O)CCN(C)C)s1  1.58
6. Cc1nc(N)sc1C(=O)CCN1CCCC1  1.74
7. CCN(CC)CCC(=O)c1sc(N)nc1C  1.76
8. CNc1nc(C)c(C(=O)CCN2CCCC2)s1  1.86
9. Cc1nc(N)sc1C(=O)CCN1CCCCC1  2.13
10. CNc1nc(C)c(C(=O)CCN2CCCCC2)s1  2.21
11. CCNc1nc(C)c(C(=O)CCN(C)C)s1  2.21
12. CCNc1nc(C)c(C(=O)CCN2CCCCC2)s1  2.66
13. CCNc1nc(C)c(C(=O)CCN(CC)CC)s1  2.72
